From publication PMC9566605 (Cancer cell, 2022)

Assays:
[1] = system: H-2K^b associated peptides of EG.7 cells; type: cell-based, mouse
proteasome = test: Proteasomal activity in tumor cell lysates; type: biochemical, mouse
[2] = system: catalytic subunits of proteasomes; test: Amount of catalytic subunits of proteasomes in EG7 tumor cells; type: cell-based, mouse; conditions: EG7 tumor cells treated with PNT or bortezomib
EG.7 cells = test: Viability and surface marker expression of treated EG.7 cells; type: cell-based, mouse
[3] = system: human melanoma UACC903 cell line; test: SILAC LC-MS/MS of HLA-A, -B, -C bound peptides after PNT; conditions: UACC903 cells
EL4 tumor cells = conditions: pre-treatment of tumor cells with PNT; 5:1 ratio, annexin V/DAPI, 5 and 16 hours
H-2K^b [4] = target: T1, H-2K^b (Mus musculus, UniProt P01901); test: RMA-S binding assay; conditions: 2.5 mM PNT before peptide loading
EL4 cells = test: Empty MHC class I detection by […] loading of EL4 cells; type: cell-based, mouse; conditions: EL4 cells treated with PNT, n=4
H-2K^b [5] = target: T1, H-2K^b; test: RMA-S dissociation assay; type: binding; conditions: PNT before loading with peptides
[6] = system: nitrotyrosine (NT) in LLC tumor tissue; test: Immunofluorescent NT staining of LLC tumor tissue; type: in vivo, mouse; conditions: LLC tumor-bearing mice treated with RTA408
B16F10-iNOS cells = test: CTL assay of Pmel-1 cells against mixed B16F10-control and B16F10-iNOS cells; type: cell-based, mouse; conditions: B16F10-control and B16F10-iNOS mixed 1:1, activated Pmel-1 cells, pre-treated with RTA408
H-2D^b = target: T2, H-2D^b (Mus musculus, UniProt P01899); test: RMA-S dissociation assay, H-2D^b; type: binding
T2 sequence (P01899 25-362): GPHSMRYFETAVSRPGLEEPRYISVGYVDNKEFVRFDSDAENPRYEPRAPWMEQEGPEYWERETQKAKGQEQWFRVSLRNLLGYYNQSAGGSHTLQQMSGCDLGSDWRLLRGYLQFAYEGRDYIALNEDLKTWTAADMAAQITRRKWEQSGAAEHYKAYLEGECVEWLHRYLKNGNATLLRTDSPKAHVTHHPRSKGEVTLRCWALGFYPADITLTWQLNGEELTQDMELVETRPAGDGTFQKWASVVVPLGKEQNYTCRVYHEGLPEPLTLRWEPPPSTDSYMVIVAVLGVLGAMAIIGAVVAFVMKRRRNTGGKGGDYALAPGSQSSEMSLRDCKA
T2 sequence (P01887 21-119 partner): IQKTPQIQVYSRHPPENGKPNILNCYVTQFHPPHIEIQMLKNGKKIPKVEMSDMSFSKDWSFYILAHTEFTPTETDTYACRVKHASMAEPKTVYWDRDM

T1 sequence (P01901 whole entry, looked up): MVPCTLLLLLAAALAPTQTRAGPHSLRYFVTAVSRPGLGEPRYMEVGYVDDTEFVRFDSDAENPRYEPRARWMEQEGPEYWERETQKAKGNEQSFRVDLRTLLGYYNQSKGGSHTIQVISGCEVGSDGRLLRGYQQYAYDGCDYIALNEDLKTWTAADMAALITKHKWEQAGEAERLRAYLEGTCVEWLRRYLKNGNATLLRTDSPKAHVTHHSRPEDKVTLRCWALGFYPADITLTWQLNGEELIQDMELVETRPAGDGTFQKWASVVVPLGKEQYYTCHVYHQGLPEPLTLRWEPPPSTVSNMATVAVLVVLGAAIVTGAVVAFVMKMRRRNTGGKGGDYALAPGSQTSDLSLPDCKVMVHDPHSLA

CC(C)C[C@H](NC(=O)[C@H](Cc1ccccc1)NC(=O)c1cnccn1)B(O)O [bortezomib]
representation of MHCI peptides vs non-treated cells ([1]; EG.7 cells, 15 nM bortezomib): substantial decrease | proteasomal activity (proteasome; EG.7 cells, 15 nM bortezomib, N=5): modest inhibition | amount of 6 catalytic subunits of proteasomes [2]: did not affect | expression of MHC class I (H2K^b) (EG.7 cells; 15 nM bortezomib): did not affect | viability of tumor cells (EG.7 cells; 15 nM bortezomib): did not affect

O=NOO [PNT, peroxynitrite]
recovery of H-2K^b peptide profile ([1]; 2.5 mM PNT on ice 5 min, 16 h after the treatment): returned to the pre-treatment level | change in H-2K^b peptide profile ([1]; 2.5 mM PNT on ice 5 min, right after the treatment (0 min)): no substantial changes | change in HLA-A, -B, -C bound peptide profile [3]: substantially changed the peptide profile | effect on proteasomal activity in IFN-γ pre-treated vs non-pre-treated cells (proteasome; EG7 and LLC cells, 100 ng/ml IFN-γ 24 hours, then PNT): the same | recovery of proteasomal activity over time (proteasome; EG.7 cells, 2.5 mM PNT, chymotrypsin, trypsin and caspase-like activities): almost completely restored by 22 hours | proteasome types and activities affected (proteasome; EL4 and LLC cell lines, 2.5 mM PNT 5 min on ice, proteasome-specific fluorogenic substrates): affected mostly chymotrypsin- and trypsin-like activities associated with constitutive proteasomes | proteasomal activity (proteasome; tumor cells treated with 2.5 mM PNT for 5 min, n=3): profound decrease | killing of tumor cells by CTLs generated against PNT-resistant peptides (EL4 tumor cells): did not affect killing | amount of 6 catalytic subunits of proteasomes [2]: did not affect | effect of PNT pre-treatment of RMA-S cells on binding of the peptides (H-2K^b [4]): only a small decrease | total H-2Kb expression, PNT-treated vs control cells (EL4 cells): no differences | NT (nitrotyrosine) expression (EG.7 cells; 2.5 mM PNT): substantial up-regulation | cell viability (EG.7 cells; 2.5 mM PNT): did not affect | expression of MHCI H-2K^b molecules (EG.7 cells; 2.5 mM PNT): did not affect | effect of PNT treatment of RMA-S cells on dissociation rates (H-2K^b [5]): no detectable effect

CC1(C)CC[C@]2(NC(=O)C(C)(F)F)CC[C@]3(C)[C@H](C(=O)C=C4[C@@]5(C)C=C(C#N)C(=O)C(C)(C)[C@@H]5CC[C@]43C)[C@@H]2C1 [RTA408, Omaveloxolone]
NT staining in tumor tissues [6]: reduced NT staining | resistance of B16F10-iNOS cells to killing by CTLs (B16F10-iNOS cells): completely abrogated resistance

EGSRNQDWL
dissociation from H-2D^b (H-2D^b): dissociated significantly faster
